Measured values published in patent US5430062A, “Stilbene derivatives as anticancer agents” (priority 1993, dated 1995).
Where two headings read alike, the source gives them in different places.

How the values were obtained:
[1] = system: MLM melanoma; assay: MTT cytotoxicity assay, MLM
[2] = system: A-549 lung carcinoma; assay: MTT cytotoxicity assay, A-549; details: Homo sapiens, A549, […]
[3] = system: MCF-7 breast carcinoma; assay: MTT cytotoxicity assay, MCF-7; details: Homo sapiens, MCF7, […]
[4] = system: HT-29 colon adenocarcinoma; assay: MTT cytotoxicity assay, HT-29; details: Homo sapiens, HT-29, […]
[5] = system: SKMEL-5 melanoma; assay: MTT cytotoxicity assay, SKMEL-5; details: Homo sapiens, SK-MEL-5, […], read-out: Cytotoxicity ED50, SKMEL-5
[6] = […], read-out: Cytotoxicity ED50, MLM
[7] = read-out: Cytotoxicity ED50, A-549
[8] = read-out: Cytotoxicity ED50, MCF-7
[9] = read-out: Cytotoxicity ED50, HT-29

Row | Compound | IC50 [1, 6] [µM] | IC50 [2, 7] [µM] | IC50 [3, 8] [µM] | IC50 [4, 9] [µM] | IC50 [5] [µM] | IC50 ([1]; […], read-out: Cytotoxicity ED50, MLM, MLM, MTT, six days) [µM] | IC50 ([2]; read-out: Cytotoxicity ED50, A-549, A-549, MTT, six days) [µM] | IC50 ([3]; read-out: Cytotoxicity ED50, MCF-7, MCF-7, MTT, six days) [µM] | IC50 ([4]; read-out: Cytotoxicity ED50, HT-29, HT-29, MTT, six days) [µM] | IC50 ([1]; read-out: Cytotoxicity ED50, MLM, MLM, MTT, six days, 8640 min) [µM]
1 | COc1cc(OC)c(OC)cc1CCc1cc(OC)c(OC)c(OC)c1 [8v] | > 25 | > 25 | > 25 | > 25 | > 25 |  |  |  |  | 
2 | COc1cc(CCc2ccc(O)cc2)cc(OC)c1OC [8o, 1-(4-hydroxyphenyl)-2-(3,4,5-trimethoxyphenyl)ethane] | > 25 | > 25 | > 25 | > 25 | > 25 |  |  |  |  | 
3 | COc1cc(CCc2ccc(OC(C)=O)cc2)cc(OC)c1OC [8p] | > 25 | 19 | > 25 | > 25 | > 25 |  |  |  |  | 
4 | COc1ccccc1CCc1cc(OC)c(OC)c(OC)c1 [8c] | > 25 | 13.5 | 11.8 | > 25 | 20 |  |  |  |  | 
5 | COc1cc(/C=C/c2ccncc2)cc(OC)c1OC [6i, 1-(4-Pyridyl)-2-(3,4,5-trimethoxyphenyl)ethene] | > 25 | > 25 | > 25 | > 25 | > 25 |  |  |  |  | 
6 | COc1cc(/C=C/c2ccc([N+](=O)[O-])cc2)cc(OC)c1OC [compound 6l, (E)-1-(4-Nitrophenyl)-2-(3,4,5-trimethoxyphenyl)ethene] | > 25 | > 25 | > 25 | > 25 | > 25 |  |  |  |  | 
7 | COc1ccc(/C=C/c2cc(OC)cc(OC)c2)cc1 [16i, (E)-1-(3,5-Dimethoxyphenyl)-2-(4-methoxyphenyl)ethene] | > 25 | 7.5 | 9.7 | 6.9 | 0.88 |  |  |  |  | 
8 | COc1ccc(/C=C/c2ccccc2)c(OC)c1OC [6r, (E)-1-Phenyl-2-(2,3,4-trimethoxyphenyl)ethene] | > 25 | > 25 | > 25 | > 25 | > 25 |  |  |  |  | 
9 | COc1cc(/C=C/c2ccc(OC)c(OC)c2OC)cc(OC)c1OC [6t] | 23.9 | 12.5 | 14.7 | 10.3 | 10.6 |  |  |  |  | 
10 | COc1cc(/C=C/c2ccc(N)cc2)cc(OC)c1OC [6z, (E)-1-(4-Aminophenyl)-2-(3,4,5-trimethoxyphenyl)ethene] | > 25 | > 25 | > 25 | > 25 | > 25 |  |  |  |  | 
11 | COc1ccc(CNc2cc(OC)c(OC)c(OC)c2)cc1OC [12b] | > 25 | > 25 | > 25 | > 25 | > 25 |  |  |  |  | 
12 | COc1cc(/C=C/c2ccc(OC)c(OC)c2)cc(OC)c1 [6y] | > 25 | > 25 | > 25 | > 25 | > 25 |  |  |  |  | 
13 | COc1cc(/C=C/c2ccc(Br)cc2)cc(OC)c1OC [6h] | 5.13 | 6.47 | 9.14 | 12.7 | 6.53 |  |  |  |  | 
14 | CCc1ccc(/C=C/c2cc(OC)c(OC)c(OC)c2)cc1 [16e, (E)-(4-Ethylphenyl)-2-(3,4,5-trimethoxyphenyl)ethene] | 0.22 | 0.13 | 1.2 | 0.11 | 0.17 |  |  |  |  | 
15 | COc1cc(/C=C/c2cccnc2)cc(OC)c1OC [6j, 1-(3-Pyridyl)-2-(3,4,5-trimethoxyphenyl)ethene] | > 25 | > 25 | > 25 | > 25 | > 25 |  |  |  |  | 
16 | COc1ccc(/C=C/c2cc(OC)c(OC(C)=O)c(OC)c2)cc1 [16l, (E)-1-(4-Acetoxy-3,5-dimethoxyphenyl)-2-(4-methoxy-phenyl)ethene] | 21 | 16.4 | 19.4 | 11.7 | 10.2 |  |  |  |  | 
17 | COc1cc(OC)c(OC)cc1/C=C/c1cc(OC)c(OC)c(OC)c1 [6v] | > 25 | > 25 | > 25 | > 25 | > 25 |  |  |  |  | 
18 | COc1ccc(CCc2ccccc2)cc1OC [8q] | > 25 | > 25 | > 25 | > 25 | > 25 |  |  |  |  | 
19 | COc1cc(/C=C/c2ccc(C(C)(C)C)cc2)cc(OC)c1OC [16g, (E)-1-(4-t-Butylphenyl)-2-(3,4,5-trimethoxyphenyl)ethene] | > 25 | > 25 | > 25 | > 25 | > 25 |  |  |  |  | 
20 | COc1cc(CCc2ccccc2)cc(OC)c1OC [8f] | > 25 | > 25 | > 25 | > 25 | > 25 |  |  |  |  | 
21 | COc1ccc(C(=O)Nc2cc(OC)cc(OC)c2)cc1 [11e] | > 25 | > 25 | > 25 | > 25 | > 25 |  |  |  |  | 

Row | Compound | IC50 [1, 6] [µM] | IC50 [2, 7] [µM] | IC50 [3, 8] [µM] | IC50 [4, 9] [µM] | IC50 [5] [µM] | IC50 ([1]; […], read-out: Cytotoxicity ED50, MLM, MLM, MTT, six days) [µM] | IC50 ([2]; read-out: Cytotoxicity ED50, A-549, A-549, MTT, six days) [µM] | IC50 ([3]; read-out: Cytotoxicity ED50, MCF-7, MCF-7, MTT, six days) [µM] | IC50 ([4]; read-out: Cytotoxicity ED50, HT-29, HT-29, MTT, six days) [µM] | IC50 ([1]; read-out: Cytotoxicity ED50, MLM, MLM, MTT, six days, 8640 min) [µM]
22 | COc1cc(/C=C/c2ccccc2)cc(OC)c1OC [6f] | > 25 | > 25 | > 25 | > 25 | > 25 |  |  |  |  | 
23 | COc1cc(/C=C/c2ccc(OC(C)=O)cc2)cc(OC)c1OC [6p, (E)-1-(4-Acetoxyphenyl)-2-(3,4,5-trimethoxyphenyl)ethene] | 13 | 9.7 | 9.6 | 5.4 | 4.6 |  |  |  |  | 
24 | COc1cc(OC)c(OC)cc1/C=C/c1ccccc1 [6w] | > 25 | > 25 | 8.5 | > 25 | > 25 |  |  |  |  | 
25 | COc1cc(/C=C/c2cc(OC)c(OC)c(OC)c2)cc(OC)c1 [6s] | > 25 | > 25 | > 25 | > 25 | > 25 |  |  |  |  | 
26 | COc1cc(CCc2cccnc2)cc(OC)c1OC [8j, 1-(3-Pyridyl)-2-(3,4,5-trimethoxyphenyl)ethane] | > 25 | 12.2 | > 25 | > 25 | > 25 |  |  |  |  | 
27 | COc1cc(/C=C\c2ccc(C)cc2)cc(OC)c1OC [15d, (Z)-(4-Methylphenyl)-2-(3,4,5-trimethoxyphenyl)ethene] | 0.0066 | 0.00094 | 0.024 | 0.0023 | 0.00083 |  |  |  |  | 
28 | CCCOc1ccc(/C=C/c2cc(OC)c(OC)c(OC)c2)cc1 [16b, (E)-1-(4-n-Propoxyphenyl)-2-(3,4,5-trimethoxyphenyl)ethene] | > 25 | 9.2 | 12.5 | > 25 | > 25 |  |  |  |  | 
29 | COc1cc(OC)c(/C=C/c2ccccc2)c(OC)c1 [6x] | > 25 | > 25 | > 25 | > 25 | > 25 |  |  |  |  | 
30 | COc1ccc(/C=C/c2ccc(OC)c(OC)c2)cc1 [16h, (E)-(4-Methoxyphenyl)-2-(3,4-dimethoxyphenyl)ethene] | > 25 | 11.7 | > 25 | > 25 | > 25 |  |  |  |  | 
31 | COc1cc(/C=C/c2cc(OC)c(OC)c(OC)c2)cc(OC)c1OC [6u] | > 25 | > 25 | > 25 | > 25 | > 25 |  |  |  |  | 
32 | COc1ccc(C(=O)Nc2cc(OC)c(OC)c(OC)c2)cc1 [11c, 4-Methoxy-N-(3,4,5-trimethoxyphenyl)benzamide] | > 25 | > 25 | > 25 | > 25 | > 25 |  |  |  |  | 
33 | COc1ccc(/C=C/c2cc(OC)c(O[Si](C)(C)C(C)(C)C)c(OC)c2)cc1 [16k, (E)-1-[4-{(t-Butyldimethylsilyl)-oxy}-3,5-(dimethoxy)-phenyl]-2-(4-methoxyphenyl)ethene] | > 25 | > 25 | > 25 | > 25 | > 25 |  |  |  |  | 
34 | COc1cc(CCc2ccc(NC(C)=O)cc2)cc(OC)c1OC [compound 8m, 1-(4-Acetamidophenyl)-2-(3,4,5-trimethoxyphenyl)ethane] | > 25 | > 25 | > 25 | > 25 | > 25 |  |  |  |  | 
35 | COc1cc(CCc2ccncc2)cc(OC)c1OC [8i, 1-(4-Pyridyl)-2-(3,4,5-trimethoxyphenyl)ethane] | > 25 | > 25 | > 25 | > 25 | > 25 |  |  |  |  | 
36 | COc1cc(NC(=O)c2cc(OC)c(OC)c(OC)c2)cc(OC)c1OC [11f] | > 25 | > 25 | > 25 | > 25 | > 25 |  |  |  |  | 
37 | COc1ccccc1/C=C/c1cc(OC)c(OC)c(OC)c1 [6c] | > 25 | 12.2 | 18 | 12.1 | 13.5 |  |  |  |  | 
38 | COc1cccc(/C=C/c2cc(OC)c(OC)c(OC)c2)c1 [6b] |  |  |  |  | 10.5 | > 25 | 9.8 | 12.2 | 7.3 | 
39 | COc1cc(/C=C/c2ccc(C)cc2)cc(OC)c1OC [16d, (E)-(4-Methylphenyl)-2-(3,4,5-trimethoxyphenyl)ethene] | 6.3 | 1.1 | 1.9 | 0.9 | 0.8 |  |  |  |  | 
40 | (E)-1-[4-(Benzyloxy)-3,5-(dimethoxy)phenyl]-2-(4-methoxyphenyl)ethene [16j] |  |  |  |  |  |  |  |  |  | > 25
41 | CCc1ccc(/C=C\c2cc(OC)c(OC)c(OC)c2)cc1 [15e, (Z)-(4-Ethylphenyl)-2-(3,4,5-trimethoxyphenyl)ethene] | 0.0075 | 0.012 | 0.072 | 0.0027 | 0.00086 |  |  |  |  | 
